{
  "source": "patent US6306435A",
  "about": "“Oral pharmaceutical preparation embedded in an oily matrix and methods of making the same” (Yung Shin Pharmaceutical Industrial Co. Ltd., priority 2000, dated 2001)",
  "origin": "cited, not measured here",
  "key": {"[1]": {"assay": "not given", "remark": "listed apart in the source"}},
  "note": "Where two headings read alike, the source gives them in different places.",
  "data": [
    {"smiles": "COc1ccc2[nH]c([S+]([O-])Cc3ncc(C)c(OC)c3C)nc2c1", "note": "(centres unmarked) [Omeprazole]", "values": [
      {"measurement": "solubility in alkaline solutions", "setting": "alkaline solutions, as negatively charged ion", "result": "very soluble"},
      {"measurement": "pKa (pyridinium)", "setting": "pyridinium", "result": "~ 4"},
      {"measurement": "solubility in water", "setting": "water", "result": "very slightly soluble"},
      {"measurement": "degradation before reaching the small intestine", "setting": "[1]; conventional oral dosage form", "result": "more than half"},
      {"measurement": "effect of moisture, organic solvents and acidic substances on stability", "setting": "[1]; moisture, organic solvents and acidic substances", "result": "deleterious effect"},
      {"measurement": "half-life of degradation", "setting": "[1]; pH 6.5", "result": 18, "unit": "h"},
      {"measurement": "half-life of degradation", "setting": "[1]; pH 11", "result": "about 300 days"},
      {"measurement": "half-life of degradation", "setting": "[1]; water solutions, pH-values below 4", "result": "less than 10 minutes"}
    ]}
  ]
}
